Results as given in paper PMC10830684, “Effect of Oregon grape root extracts on P-glycoprotein mediated transport in in vitro cell lines” (Journal of Pharmacy & Pharmaceutical Sciences, 2024).

Experiments:
P-glycoprotein = P-glycoprotein (Homo sapiens, UniProt P08183); assay: Effect on 3H-CsA and 3H-digoxin transport in Caco-2 cells; conditions: for Papp (B to A) of 3H-CsA / Papp (B to A) of 3H-digoxin: Caco-2; for Papp (B to A) of 3H-CsA: 0.5 µM 3H-CsA
Caco-2 cells [1] = assay: LDH leakage cytotoxicity assay in Caco-2 cells; type: cell-based, human; conditions: 4 hours exposure
Excerpt: (§1) We initiated cytotoxicity experiments with the Caco-2, MDCKII-MDR1 and MDCKII-wild type cells on Day 7 (Caco-2) and Day 4 (MDCKII-MDR1 and MDCKII-wild type) after the initial plating of the cells at 2.5 × 10^3 cells/well in 48-well plates (Becton Dickinson, Franklin Lakes, NJ, USA). See details of preparation for the cytotoxicity experiments in Supplementary Material.
(§2) We initiated cytotoxicity experiments with the Caco-2, MDCKII-MDR1 and MDCKII-wild type cells on Day 7 (Caco-2) and Day 4 (MDCKII-MDR1 and MDCKII-wild type) after the initial plating of the cells at 2.5x10^3 cells/well in 48-well plates (Becton Dickinson, Franklin Lakes, NJ, USA). Stock solutions of 10 mM berberine or berbamine were prepared by dissolving the compounds in DMSO (berberine) or distilled water (berbamine).
(§3) The LDH enzymatic activities were assayed using the method of Mitchell et al.(1). […] Enzyme leakage into the medium was expressed as the percentage of total cellular LDH. The MTT (3-(4,5-dimethythiazole-2yl)-2,5-diphenyl tetrazolium bromide) reduction assay was done according to Mosmann (2). This assay was conducted immediately with the same cells used in the LDH study. The results were expressed as the percentage of negative controls.

MDCKII wild-type cells = assay: MTT cytotoxicity assay in MDCKII wild-type cells; type: cell-based, Canine; conditions: MDCKII-WT cells, 4 hours exposure
Excerpt: as §1
We initiated cytotoxicity experiments with the Caco-2, MDCKII-MDR1 and MDCKII-wild type cells on Day 7 (Caco-2) and Day 4 (MDCKII-MDR1 and MDCKII-wild type) after the initial plating of the cells at 2.5x10^3 cells/well in 48-well plates (Becton Dickinson, Franklin Lakes, NJ, USA). Stock solutions of 10 mM berberine or berbamine were prepared by dissolving the compounds in DMSO (berberine) or distilled water (berbamine). […] The final concentration of DMSO was 0.003% (v/v), 0.03% (v/v), 0.3% (v/v), 1% (v/v), 1.5% (v/v), and 3% (v/v) DMSO/culture medium for 0.3 μM, 3 μM, 30 μM, 100 μM, ,150 μM, and 300 μM, respectively. The final concentration of ethanol was 0.15% (v/v) ethanol/culture medium. Ketoconazole (75 µM) was used as a positive control and no treatment (medium alone) was used as a negative control for each experiment.
as §3

[2] = molecular target: P-glycoprotein (MDCKII-MDR1 cells) (Homo sapiens, UniProt P08183); assay: Effect on 3H-CsA and 3H-digoxin transport in MDCKII-MDR1 cells; conditions: for Papp (B to A) of 3H-CsA: 0.5 µM 3H-CsA; for Papp (B to A) of 3H-digoxin: 0.5 µM 3H-digoxin
Caco-2 cells [3] = assay: MTT cytotoxicity assay in Caco-2 cells; type: cell-based, human; conditions: for MTT assay: 4 hours exposure
Excerpt: as §1, §2, §3

P-gp = tested on: P-gp; design: method as in PMID 12434406; conditions: Caco-2 cells; seven day pretreatment; 30 µM; cited from earlier work

Chain of P-glycoprotein (P08183 whole entry): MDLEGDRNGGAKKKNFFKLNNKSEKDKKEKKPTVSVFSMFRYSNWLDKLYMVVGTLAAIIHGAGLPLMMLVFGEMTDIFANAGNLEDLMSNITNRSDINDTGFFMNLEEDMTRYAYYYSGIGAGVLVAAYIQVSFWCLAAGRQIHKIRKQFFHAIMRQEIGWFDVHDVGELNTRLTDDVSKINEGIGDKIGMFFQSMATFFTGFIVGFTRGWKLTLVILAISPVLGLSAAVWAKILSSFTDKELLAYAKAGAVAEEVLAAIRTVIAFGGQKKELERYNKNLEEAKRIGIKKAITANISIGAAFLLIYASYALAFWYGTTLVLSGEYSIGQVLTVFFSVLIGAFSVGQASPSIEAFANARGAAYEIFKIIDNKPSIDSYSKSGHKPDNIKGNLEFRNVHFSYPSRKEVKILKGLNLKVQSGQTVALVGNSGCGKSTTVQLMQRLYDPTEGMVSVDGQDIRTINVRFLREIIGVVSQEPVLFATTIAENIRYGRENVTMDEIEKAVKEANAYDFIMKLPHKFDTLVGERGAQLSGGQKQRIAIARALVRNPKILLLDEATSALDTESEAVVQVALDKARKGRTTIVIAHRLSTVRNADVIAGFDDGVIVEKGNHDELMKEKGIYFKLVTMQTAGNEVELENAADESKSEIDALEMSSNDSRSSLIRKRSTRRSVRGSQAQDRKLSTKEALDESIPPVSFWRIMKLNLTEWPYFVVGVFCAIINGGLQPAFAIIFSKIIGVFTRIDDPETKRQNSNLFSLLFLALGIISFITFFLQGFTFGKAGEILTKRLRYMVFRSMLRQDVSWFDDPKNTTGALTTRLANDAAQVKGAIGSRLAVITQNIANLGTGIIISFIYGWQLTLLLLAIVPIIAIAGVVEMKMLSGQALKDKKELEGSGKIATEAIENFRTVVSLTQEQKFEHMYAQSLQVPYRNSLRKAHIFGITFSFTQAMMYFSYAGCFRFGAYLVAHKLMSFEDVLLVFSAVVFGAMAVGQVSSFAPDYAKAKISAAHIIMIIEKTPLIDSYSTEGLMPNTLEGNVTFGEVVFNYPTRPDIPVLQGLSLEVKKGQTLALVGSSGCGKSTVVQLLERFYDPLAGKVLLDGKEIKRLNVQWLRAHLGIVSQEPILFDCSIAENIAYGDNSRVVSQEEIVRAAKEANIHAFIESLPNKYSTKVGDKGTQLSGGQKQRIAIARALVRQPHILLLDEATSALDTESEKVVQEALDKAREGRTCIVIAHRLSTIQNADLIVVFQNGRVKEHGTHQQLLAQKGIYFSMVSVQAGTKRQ
Chain of P-glycoprotein (MDCKII-MDR1 cells) (P08183 whole entry): as above

For `COc1ccc2cc3[n+](cc2c1OC)CCc1cc2c(cc1-3)OCO2.[Cl-]` [Berberine, Berberine chloride], which “Papp (B to A) of 3H-CsA” value (P-glycoprotein; 10 µM compound) is on record?
Its value is 1.79 ± 0.16 x 10^−6 cm/s.

And the “Papp (B to A) of 3H-digoxin” value (P-glycoprotein; 10 µM compound, 0.5 µM 3H-digoxin)?
Its value is 2.37 ± 0.26 x 10^−6 cm/s.

And the “Papp (B to A) of 3H-CsA” value (P-glycoprotein; 30 µM compound)?
The value was 1.52 ± 0.14 x 10^−6 cm/s.

And the “Papp (B to A) of 3H-digoxin” value (P-glycoprotein; 30 µM compound, 0.5 µM 3H-digoxin)?
The value was 2.26 ± 0.29 x 10^−6 cm/s.

What about the “Papp (B to A) of 3H-CsA” value (P-glycoprotein; 100 µM compound) of the same compound?
The value was 1.60 ± 0.45 x 10^−6 cm/s.

And the “Papp (B to A) of 3H-digoxin” value (P-glycoprotein; 100 µM compound, 0.5 µM 3H-digoxin)?
Its value is 2.93 ± 0.07 x 10^−6 cm/s.

And the “lowest concentration with significant decrease of B to A transport of 0.5 µM 3H-CsA” value (P-glycoprotein; Caco-2 cells)?
Its value is 10 µM.

And the “effect on digoxin transport” value (P-glycoprotein; Caco-2 cells, up to 30 μM, 0.5 µM 3H-digoxin)?
The value was “no significant effects”.

What about the LDH assay (Caco-2 cells [1]; 150 µM) of the same compound?
Its LDH assay is 25.93 ± 4.78%.

And the LDH assay (Caco-2 cells [1]; 300 µM)?
The LDH assay was 44.88 ± 2.09%.

What about the MTT assay (MDCKII wild-type cells; 0.03 µM) of the same compound?
The MTT assay was “□ (%MTT reduction is not significantly decreased compared with the negative control)”.

What about the MTT assay (MDCKII wild-type cells; 3.0 µM) of the same compound?
Its MTT assay is “□ (%MTT reduction is not significantly decreased compared with the negative control)”.

What about the MTT assay (MDCKII wild-type cells; 100 µM) of the same compound?
Its MTT assay is “□ (%MTT reduction is not significantly decreased compared with the negative control)”.

And the MTT assay (MDCKII wild-type cells; 150 µM)?
The MTT assay was “□ (%MTT reduction is not significantly decreased compared with the negative control)”.

And the MTT assay (MDCKII wild-type cells; 300 µM)?
Its MTT assay is 24.82 ± 15.91%.

And the “Papp (B to A) of 3H-CsA” value ([2]; 10 µM compound)?
The value was 5.34 ± 1.56 x 10^−6 cm/s.

What about the “Papp (B to A) of 3H-digoxin” value ([2]; 10 µM compound) of the same compound?
The value was 1.56 ± 0.43 x 10^−6 cm/s.

And the “Papp (B to A) of 3H-CsA” value ([2]; 30 µM compound)?
The value was 5.17 ± 0.92 x 10^−6 cm/s.

And the “Papp (B to A) of 3H-digoxin” value ([2]; 30 µM compound)?
The value was 1.57 ± 0.81 x 10^−6 cm/s.

And the MTT assay (Caco-2 cells [3]; 0.03 µM)?
The MTT assay was “□ (%MTT reduction is not significantly decreased compared with the negative control)”.

And the MTT assay (Caco-2 cells [3]; 3.0 µM)?
Its MTT assay is “□ (%MTT reduction is not significantly decreased compared with the negative control)”.

What about the MTT assay (Caco-2 cells [3]; 100 µM) of the same compound?
Its MTT assay is “□ (%MTT reduction is not significantly decreased compared with the negative control)”.

What about the MTT assay (Caco-2 cells [3]; 150 µM) of the same compound?
The MTT assay was 76.37 ± 2.13%.

And the “earliest time of significant increase in LDH leakage and decrease in MTT reduction” value (Caco-2 cells [3]; 150 µM, time-response 2, 4, 6, 8 hr, data not shown)?
The value was 4 h.

What about the MTT assay (Caco-2 cells [3]; 300 µM) of the same compound?
The MTT assay was 58.25 ± 6.37%.

And the MTT assay (Caco-2 cells [3]; 300 µM, listed as berberine)?
The MTT assay was 58.25 ± 9.24%.

What about the “increase of the efflux of daunomycin” value (P-gp) of the same compound?
The value was 1.4 fold.
